From US20130072543A1, “Compounds and Compositions for Nucleic Acid Formulation and Delivery” (ARROWHEAD RESEARCH CORPORATION, priority 2011, published 2013)
Strand notation (5' to 3'): a small letter for the sugar, then the base; units joined by * are phosphorothioate-linked, units joined directly phosphodiester-linked; [ ] holds rarer units or linkages, { } end groups; capitals alone tell only the bases. d = 2'-deoxy (DNA); m = 2'-O-methyl; r = 2'-OH (RNA)

Tested on: Kif11 mRNA
Assay: In vivo administration of LNPs to mice, H&E histopathology of aberrant mitotic figures
Conditions: mouse bone marrow, 5 consecutive high power (400×) microscopic fields per sample
Procedure: In Vivo Administration. Selected LNPs were dosed IV via tail vein injection on three successive days and the indicated tissues (see FIG. 11-13) were harvested and fixed in 10% zinc-formalin overnight, processed, paraffin embedded, sectioned at 5 μm, and stained with hematoxylin and eosin for histopathology assessment. In vivo delivery and Kif11 knockdown was shown with an increase in aberrant mitotic figures as a surrogate for Kif11 mRNA loss in murine liver, spleen and bone marrow tissue. Mitotic figures refer to chromosome aggregation during mitosis.

LUC: control siRNA targeting Firefly Luciferase mRNA, 21 nucleotides, SEQ ID 3 and 4 (chain 1 mCmUmUrAmCrGmCmUrGrArGmUrAmCmUmUmCrGrAdT*dT; chain 2 rUrCrGrArArGmUrArCrUmCrArGrCrGmUrArArGdT*dT; listed as Photinus pyralis)
Average no. of aberrant mitotic figures: 0
